Test results as given in patent publication US4112082A (priority 1975, dated 1978).

Experiments:
[1] = test system: spider mites (Tetrantychus strain), Normal Strain; settings: in vivo
[2] = test system: spider mites (Tetrantychus strain), Resistant Strain; settings: in vivo
[3] = test system: mice; settings: mouse, in vivo, sc; cited from earlier work

Row | SMILES | LD50, Normal Strain [1] [μg/8 cm^2] | LD50, Resistant Strain [2] [μg/8 cm^2] | LD50 to mice [3] [mg/kg]
1 | CCOC(=O)CC(SP(=S)(OC)OC)C(=O)OCC (stereo not drawn) [malathion] | 50 | 40 | 
2 | CN(C)C(=O)Oc1cccc([N+](C)(C)C)c1 [neostigmine] |  |  | 0.42
